Values quoted from earlier work in patent US10925925B2, “Therapy of atherosclerosis, primary biliary cirrhosis and NRLP3 inflammasome-associated disease by HTCP inhibitors” (MYR GmbH, priority 2017, dated 2021).
Where two headings read alike, the source gives them in different places.

Key:
[1] = tested on: patients with PBC; conditions: month 12, placebo arm 10%
[2] = tested on: patients with PBC; conditions: PBC patients treated with UDCA

| Compound | patients achieving the primary endpoint (predominantly reduction in ALP) ([1]; OCA 10 mg arm) [%] | patients achieving the primary endpoint (predominantly reduction in ALP) ([1]; OCA titration arm) [%] | patients who do not achieve adequate biochemical response [2] |
| --- | --- | --- | --- |
| CC[C@H]1[C@@H](O)[C@@H]2[C@H](CC[C@]3(C)[C@@H]([C@H](C)CCC(=O)O)CC[C@@H]23)[C@@]2(C)CC[C@@H](O)C[C@@H]12 [OCA, obeticholic acide] | 47 | 46 | – |
| C[C@H](CCC(=O)O)[C@H]1CC[C@H]2[C@@H]3[C@@H](O)C[C@@H]4C[C@H](O)CC[C@]4(C)[C@H]3CC[C@]12C [UDCA, ursodeoxicholic acid] | – | – | about 40% |
